Measured values reported in patent US12478586B2, “Small molecular drug-loaded polymer vesicle, preparation method therefor and use thereof” (SOOCHOW UNIVERSITY, priority 2020, dated 2025).
Where a name gives a salt, the structure may show the parent alone.

How the values were obtained:
[1] = test system: LP-1 multiple myeloma cells; test: CCK-8 cytotoxicity; format: cell-based; conditions: LP-1 cells
Experimental: The in vitro anti-tumor activity of Dar-Ps-VCR against LP-1 multiple myeloma cells was determined using a CCK-8 kit, with MV4-11 cells as a control. LP-1 cells were first spread in 96-well plates (15,000/well) and placed in an incubator at 37° C. with 5% CO2 for 24 h. After that, 20 μL of Dar-Ps-VCR, Ps-VCR and free VCR containing different Dar surface densities were added to each well, and the final concentrations of VCR in the wells were 0.001, 0.01, 0.05, 0.1, 0.5, 1 and 10 ng/mL. After incubation at 37° C. for 48 h, 10 μL of CCK-8 solution was added to each well to continue the incubation for 4 h. Finally, its absorbance value at 492 nm was tested by an enzyme marker. Cell viability was calculated by the ratio of the absorbance value of the experimental group to the absorbance value of the cells incubated with the addition of PBS, and the experiment was performed in parallel for four groups (mean±SD, […]).

LP-1 cells = test: AnnexinV-FITC/PI apoptosis by flow cytometry; format: cell-based; conditions: VCR 0.5 ng/mL, 48 h
Experimental: LP-1 cells were first spread in 6-well plates at a density of 2×10^5 cells/well and incubated in the incubator for 24 h. After 24 h, 200 μL of Dar-Ps-VCR, Ps-VCR, and free VCR were added (the in-well concentration of VCR was 0.5 ng/mL), and the cells with only PBS were used as a control. After incubation in the incubator for 48 h, LP-1 cells were collected by centrifugation (800 rpm, 5 min) and washed twice with ice PBS, and finally 200 μL of Binding buffer was added to each sample to resuspend the cells (the cell density was approximately 10^6 cells/mL). After blowing uniformly, 100 μL was taken into the flow tube and 5 μL of AnnexinV-FITC and 10 μL of PI solution were added sequentially, and the cells were stained at room temperature and protected from light for 15 min, then 400 μL of PBS was added and mixed uniformly, and measured by flow cytometry within 1 h. The cells were then stained with PBS for 15 min at room temperature and protected from light for 15 min. Among them, the samples in the PBS group that were treated in a 50° C. water bath for 5 min and fixed with 4% paraformaldehyde for 5 min were used as the early apoptosis group and the late apoptosis group, respectively, and stained for 15 min by adding 5 μL of AnnexinV-FITC solution and 10 μL of PI solution, respectively.

[2] = test system: LP-1-Luc multiple myeloma mice; test: Anti-tumor effect in orthotopic LP-1-Luc multiple myeloma mice; format: in vivo
Experimental: Mice were simultaneously weighed.
To investigate the anti-tumor effect of Dar-Ps-VCR in […] LP-1-Luc multiple myeloma mice, treatment experiments were initiated when the bioluminescence intensity reached 1.2×10^6 p/sec/cm^2/sr on day 10 post-inoculation. There were two dosing regimens that maintained the same total VCR administration: one with a VCR dose of 0.25 mg/kg, one injection given on 4 days for a total of 4 injections, denoted as Dar-Ps-VCR (0.25 mg VCR equiv./kg, Q4d); and the other with a VCR dose of 0.50 mg/kg, one injection given on 8 days for a total of 2 injections, denoted as Dar-Ps-VCR (0.50 mg VCR equiv./kg, Q8d). Based on the first dosing regimen, equal VCR doses of Ps-VCR and free VCR, equal equivalents of Dar-Ps, and PBS were used as controls. Each treatment group consisted of 10 […] mice, of which 4 were used for bioluminescence imaging and 6 were used to monitor body weight and observe survival. […] At the end of drug administration, the tumors of mice in the non-targeted Ps-VCR and free VCR groups began to recur, and Luc bioluminescence signals increased rapidly, i.e., 157- and 53-fold by day 39, respectively.

Compound	cell survival ([1]; Dar concentration 9 μg/mL) [%]	IC50 ([1]; Homo sapiens, 48 h, VCR concentration, read-out: LC50 (IC50)) [ng/mL]	apoptosis (LP-1 cells) [%]	median survival ([2]; 0.25 mg VCR equiv./kg, Q4d (Dar-Ps: equal equivalents)) [days]	increase of Luc bioluminescence signal ([2]; by day 39, 0.25 mg VCR equiv./kg, Q4d) [fold]	Luc signal during the administration treatment period ([2]; days 10-22)
free Dar: CD38-targeting monoclonal antibody daratumumab (Dar)	~100					
CC[C@]1(O)C[C@H]2CN(CCc3c([nH]c4ccccc34)[C@@](C(=O)OC)(c3cc4c(cc3OC)N(C=O)[C@H]3[C@@](O)(C(=O)OC)[C@H](OC(C)=O)[C@]5(CC)C=CCN6CC[C@]43[C@@H]65)C2)C1 [free VCR, vincristine sulfate]		1.38	31.4	52	53	no significant increase or even a slight decrease in Luc signal
